From patent publication US11542259B2, “Compounds for the treatment of kinase-dependent disorders” (Exelixis, Inc., priority 2018, dated 2023)

Legend:
Type in all cases: cell-based
[1] = biological target: AXL (Homo sapiens (Human), UniProt P30530); assay: AXL autophosphorylation ELISA in A-172 cells; conditions: cellular, Gas6 stimulated
Experimental: A-172 glioblastoma cells (ATCC #CRL-1620) were seeded at 2.5×10^5 cells/well onto 24-well plates (Greiner #662165), in DMEM (Thermo Fisher #11995-040) containing 10% FBS (Thermo Fisher #26140-079), 1% MEM NEAA (Thermo Fisher #11140-050), 1% GlutaMax (Thermo Fisher #35050-061) and 1% Penicillin Streptomycin (Thermo Fisher #15140-122). A-172 cells were incubated at 37° C., 5% CO2 for 24 h and then starved for 24 h in serum-free medium. Test compounds were serially diluted to produce an 8-point dose curve in fresh serum-free medium to a final concentration of 0.3% DMSO (vehicle) and added to the cells and incubated for 1 h. Cells were then stimulated with 1 μg/mL recombinant human Gas6 (R&D Systems #885-GSB-500) for 15 min, washed with cold PBS and immediately lysed with 150 μL of cold 1× lysis buffer [20 mM Tris, 137 mM sodium chloride, 2 mM EDTA, 10% glycerol, 1% NP-40 alternative, 1 mM activated sodium orthovanadate, 1 mM PefaBloc SC (Sigma-Aldrich #11429868001), protease/phosphatase inhibitor tablet (Thermo Fisher #A32959)]. Lysates were collected and 100 μL/well added into the human phospho-AXL DuoSet IC ELISA (R&D Systems #DYC2228-2). Assay was performed according to manufacturer's instructions and sample phospho-AXL concentrations were extrapolated using human phospho-AXL control (R&D Systems #841645) as a standard. Positive control wells (100% activity) contained Gash-stimulated, DMSO-treated cell lysates. Negative control wells (0% activity) contained Gash-stimulated, reference inhibitor-treated cell lysates. IC50 values were calculated by nonlinear regression analysis using a 4-parameter logistic curve fit in ActivityBase XE (IDBS).

[2] = biological target: Met (Homo sapiens (Human), UniProt P08581); assay: Met autophosphorylation ELISA in PC-3 cells; conditions: cellular, HGF stimulated, read-out: c-Met IC50
Chain of Met (P08581 25-1390): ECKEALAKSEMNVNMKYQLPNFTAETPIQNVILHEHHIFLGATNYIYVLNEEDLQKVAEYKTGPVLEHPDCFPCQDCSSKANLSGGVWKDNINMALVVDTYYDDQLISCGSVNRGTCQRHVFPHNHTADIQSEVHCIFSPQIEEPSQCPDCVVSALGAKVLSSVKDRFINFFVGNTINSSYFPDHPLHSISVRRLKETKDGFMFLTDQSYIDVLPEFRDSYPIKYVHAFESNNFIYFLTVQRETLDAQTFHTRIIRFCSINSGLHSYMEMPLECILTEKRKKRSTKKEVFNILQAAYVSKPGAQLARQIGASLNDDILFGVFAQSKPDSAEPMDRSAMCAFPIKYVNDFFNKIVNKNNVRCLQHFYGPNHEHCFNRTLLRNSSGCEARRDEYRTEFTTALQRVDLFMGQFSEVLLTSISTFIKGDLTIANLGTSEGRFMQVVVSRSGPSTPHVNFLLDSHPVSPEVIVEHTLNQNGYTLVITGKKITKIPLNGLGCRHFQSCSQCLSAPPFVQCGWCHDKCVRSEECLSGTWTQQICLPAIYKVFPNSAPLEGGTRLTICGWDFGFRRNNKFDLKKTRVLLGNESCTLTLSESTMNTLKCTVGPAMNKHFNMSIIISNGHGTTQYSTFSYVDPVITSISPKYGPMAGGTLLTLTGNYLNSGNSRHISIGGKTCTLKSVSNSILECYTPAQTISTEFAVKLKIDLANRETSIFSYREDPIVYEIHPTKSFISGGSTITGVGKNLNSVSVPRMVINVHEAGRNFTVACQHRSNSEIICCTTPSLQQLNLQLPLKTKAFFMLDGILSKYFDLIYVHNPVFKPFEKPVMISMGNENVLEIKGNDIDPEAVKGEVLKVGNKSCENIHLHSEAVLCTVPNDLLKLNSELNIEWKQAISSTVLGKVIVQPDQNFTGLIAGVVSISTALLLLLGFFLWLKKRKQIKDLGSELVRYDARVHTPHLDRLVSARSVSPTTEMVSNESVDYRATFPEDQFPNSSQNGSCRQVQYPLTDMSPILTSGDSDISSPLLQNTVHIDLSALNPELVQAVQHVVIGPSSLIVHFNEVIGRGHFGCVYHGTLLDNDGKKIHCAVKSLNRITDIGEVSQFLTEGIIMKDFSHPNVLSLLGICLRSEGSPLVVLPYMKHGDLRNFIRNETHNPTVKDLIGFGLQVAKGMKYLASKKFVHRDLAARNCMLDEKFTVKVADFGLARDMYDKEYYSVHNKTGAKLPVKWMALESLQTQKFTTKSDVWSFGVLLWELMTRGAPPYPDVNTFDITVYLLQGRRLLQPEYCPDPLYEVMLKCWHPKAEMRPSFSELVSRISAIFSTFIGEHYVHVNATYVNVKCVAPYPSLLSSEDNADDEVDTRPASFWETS
Experimental: PC-3 prostate cancer cells (ATCC #CRL-1435) were seeded at 4×10^4 cells/well onto 24-well plates (Greiner #662165), in DMEM (Thermo Fisher #11995-040) containing 10% FBS (Thermo Fisher #26140-079), 1% MEM NEAA (Thermo Fisher #11140-050), 1% GlutaMax (Thermo Fisher #35050-061), and 1% Penicillin Streptomycin (Thermo Fisher #15140-122). PC-3 cells were incubated at 37° C., 5% CO2 for 24 h and then starved for 3 h in serum-free medium. Test compounds were serially diluted to produce an 8-point dose curve in fresh serum-free medium to a final concentration of 0.3% DMSO (vehicle) and added to the cells and incubated for 1 h. Cells were then stimulated with 100 ng/mL recombinant human HGF (R&D Systems #294-HG-250) for 10 min, washed with cold PBS and immediately lysed with 130 μL of cold 1× lysis buffer [20 mM Tris, 137 mM sodium chloride, 2 mM EDTA, 10% glycerol, 1% NP-40 alternative, 1 mM activated sodium orthovanadate, 1 mM PefaBloc SC (Sigma-Aldrich #11429868001), protease/phosphatase inhibitor tablet (Thermo Fisher #A32959)]. Lysates were clarified by centrifugation and 100 μL/well added into the PathScan phospho-Met (panTyr) Sandwich ELISA (Cell Signaling Technology #7333). Assay was performed according to manufacturer's instructions. Positive control wells (100% activity) contained HGF-stimulated, DMSO-treated cell lysates. Negative control wells (0% activity) contained HGF-stimulated, reference inhibitor-treated cell lysates. IC50 values were calculated by nonlinear regression analysis using a 4-parameter logistic curve fit in ActivityBase XE (IDBS).

[3] = biological target: KDR (Homo sapiens (Human), UniProt P35968); assay: KDR autophosphorylation ELISA in HUVEC cells; conditions: cellular, VEGF165 stimulated
Chain of KDR (P35968 20-1356): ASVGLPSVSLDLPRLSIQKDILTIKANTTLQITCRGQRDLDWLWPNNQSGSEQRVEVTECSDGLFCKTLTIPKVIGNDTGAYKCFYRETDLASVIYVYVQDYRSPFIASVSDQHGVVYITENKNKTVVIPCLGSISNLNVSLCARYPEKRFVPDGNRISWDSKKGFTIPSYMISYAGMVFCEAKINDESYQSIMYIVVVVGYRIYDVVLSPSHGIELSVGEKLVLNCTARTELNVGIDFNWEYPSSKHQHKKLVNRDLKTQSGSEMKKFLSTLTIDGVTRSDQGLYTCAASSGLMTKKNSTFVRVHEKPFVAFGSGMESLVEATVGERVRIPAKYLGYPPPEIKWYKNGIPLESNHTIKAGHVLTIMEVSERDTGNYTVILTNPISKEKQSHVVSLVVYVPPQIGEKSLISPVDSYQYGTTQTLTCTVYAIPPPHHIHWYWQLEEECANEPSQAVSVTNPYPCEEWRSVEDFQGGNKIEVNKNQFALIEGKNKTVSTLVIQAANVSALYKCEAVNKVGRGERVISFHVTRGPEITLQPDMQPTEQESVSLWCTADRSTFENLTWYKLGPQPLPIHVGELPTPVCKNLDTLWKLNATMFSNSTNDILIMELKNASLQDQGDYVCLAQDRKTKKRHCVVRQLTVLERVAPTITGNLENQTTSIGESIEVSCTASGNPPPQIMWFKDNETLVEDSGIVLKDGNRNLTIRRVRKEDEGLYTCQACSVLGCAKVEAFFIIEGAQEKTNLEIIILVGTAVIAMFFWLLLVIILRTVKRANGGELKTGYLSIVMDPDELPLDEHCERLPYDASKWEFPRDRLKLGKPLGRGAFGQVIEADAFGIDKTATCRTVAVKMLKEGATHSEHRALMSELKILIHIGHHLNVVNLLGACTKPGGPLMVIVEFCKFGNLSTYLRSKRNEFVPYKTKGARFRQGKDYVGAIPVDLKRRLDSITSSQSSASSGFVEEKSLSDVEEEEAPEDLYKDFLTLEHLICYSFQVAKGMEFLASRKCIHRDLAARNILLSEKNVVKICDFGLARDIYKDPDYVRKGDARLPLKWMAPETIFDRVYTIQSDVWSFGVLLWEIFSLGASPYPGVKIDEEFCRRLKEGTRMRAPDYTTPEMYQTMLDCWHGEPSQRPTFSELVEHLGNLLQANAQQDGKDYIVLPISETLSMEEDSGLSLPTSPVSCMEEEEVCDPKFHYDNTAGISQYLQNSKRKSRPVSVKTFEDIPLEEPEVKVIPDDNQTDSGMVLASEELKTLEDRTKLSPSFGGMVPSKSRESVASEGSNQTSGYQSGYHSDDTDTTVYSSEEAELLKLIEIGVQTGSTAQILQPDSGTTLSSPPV
Experimental: Human umbilical vein endothelial cells or HUVEC (Lonza #C2519A) were seeded at 2×10^4 cells/well onto 96-well plates (Corning #3904), in EGM-2 growth medium (Lonza #CC-3162) containing 1% Penicillin Streptomycin (Thermo Fisher #15140-122). HUVEC cells were incubated at 37° C., 5% CO2 for 24 h and then starved for 24 h in serum-free EBM-2 basal medium (Lonza #CC-3156) containing 1% Penicillin Streptomycin. Test compounds were serially diluted to produce an 8-point dose curve in fresh serum-free medium to a final concentration of 0.3% DMSO (vehicle) and added to the cells and incubated for 1 h. Cells were then stimulated with 100 ng/mL recombinant human VEGF165 (R&D Systems #293-VE-500) for 5 min, washed with cold PBS, and immediately lysed with 130 μL of cold 1× lysis buffer [20 mM Tris, 137 mM sodium chloride, 2 mM EDTA, 10% glycerol, 1% NP-40 alternative, 1 mM activated sodium orthovanadate, 1 mM PefaBloc SC (Sigma-Aldrich #11429868001), protease/phosphatase inhibitor tablet (Thermo Fisher #A32959)]. Lysates were collected and 100 μL/well added into the human phospho-KDR DuoSet IC ELISA (R&D Systems #DYC1766-2). Assay was performed according to manufacturer's instructions and sample phospho-KDR concentrations were extrapolated using human phospho-KDR control (R&D Systems #841421) as a standard. Positive control wells (100% activity) contained VEGF165-stimulated, DMSO-treated cell lysates. Negative control wells (0% activity) contained non-stimulated cell lysates. IC50 values were calculated by nonlinear regression analysis using a 4-parameter logistic curve fit in ActivityBase XE (IDBS).

Chain of AXL (P30530 26-894): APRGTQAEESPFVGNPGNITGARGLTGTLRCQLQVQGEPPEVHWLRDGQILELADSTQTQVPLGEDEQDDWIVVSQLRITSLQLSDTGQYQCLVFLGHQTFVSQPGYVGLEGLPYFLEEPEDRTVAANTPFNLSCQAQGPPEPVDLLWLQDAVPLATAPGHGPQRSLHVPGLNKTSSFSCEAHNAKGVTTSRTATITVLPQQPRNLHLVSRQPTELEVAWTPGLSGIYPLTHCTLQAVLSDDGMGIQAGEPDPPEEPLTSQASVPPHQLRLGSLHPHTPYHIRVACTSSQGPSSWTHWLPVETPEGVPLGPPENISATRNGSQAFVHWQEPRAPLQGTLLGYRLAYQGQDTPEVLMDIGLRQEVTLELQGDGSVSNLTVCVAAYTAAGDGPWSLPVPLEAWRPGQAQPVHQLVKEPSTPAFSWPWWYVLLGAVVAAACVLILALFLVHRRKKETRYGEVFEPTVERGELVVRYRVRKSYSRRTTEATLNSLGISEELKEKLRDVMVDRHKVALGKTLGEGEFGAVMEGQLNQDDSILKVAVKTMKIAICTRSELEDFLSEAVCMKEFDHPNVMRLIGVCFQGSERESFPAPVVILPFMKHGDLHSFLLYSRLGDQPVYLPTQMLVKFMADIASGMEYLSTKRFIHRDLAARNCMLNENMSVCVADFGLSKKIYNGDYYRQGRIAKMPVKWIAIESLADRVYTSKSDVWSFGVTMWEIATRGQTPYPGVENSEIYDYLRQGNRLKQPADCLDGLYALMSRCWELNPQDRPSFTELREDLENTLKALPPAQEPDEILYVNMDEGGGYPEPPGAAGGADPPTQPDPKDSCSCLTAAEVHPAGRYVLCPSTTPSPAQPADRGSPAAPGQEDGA

Row | IC50 [1] [nM] | IC50 [2] [nM] | IC50 [3] [nM] | Structure (SMILES)
1 | 100 to 300 | 100 to 300 | 10 to 100 | CNC(=O)c1cc2c(Oc3ccc(NC(=O)C4(C(=O)Nc5ccc(C(F)(F)F)cc5)CC4)cc3F)ccnc2cc1OC [Compound 273, 1-N′-[3-Fluoro-4-[7-methoxy-6-(methylcarbamoyl)quinolin-4-yl]oxyphenyl]-1-N-[4-(trifluoromethyl)phenyl]cyclopropane-1,1-dicarboxamide]
2 | 100 to 300 | 100 to 300 | > 300 | COC(=O)Nc1ccc2c(Oc3ccc(NC(=O)C4(C(=O)Nc5ccc(F)cc5)CC4)cc3)ccnc2c1 [Compound 282, Methyl N-[4-[4-[[1-[(4-fluorophenyl)carbamoyl]cyclopropanecarbonyl]-amino]phenoxy]quinolin-7-yl]carbamate]
3 | > 300 | 100 to 300 | > 300 | CC(=O)c1ccc2c(Oc3ccc(NC(=O)C4(C(=O)Nc5ccc(F)cc5)CC4)cc3)ccnc2c1 [Compound 255, 1-N-[4-(7-Acetylquinolin-4-yl)oxyphenyl]-1-N′-(4-fluorophenyl)cyclopropane-1,1-dicarboxamide]
4 | ≤ 10 | 10 to 100 | ≤ 10 | NC(=O)c1cc2c(Oc3ccc(NC(=O)C4(C(=O)Nc5ccc(F)cc5)CC4)cc3)ccnc2cc1OCCO [Compound 106, 1-N-[4-[6-Carbamoyl-7-(2-hydroxyethoxy)quinolin-4-yl]oxyphenyl]-1-N′-(4-fluorophenyl)cyclopropane-1,1-dicarboxamide]
5 | > 300 | > 300 | > 300 | Nc1cc2nccc(Oc3ccc(NC(=O)C4(C(=O)Nc5ccc(F)cc5)CC4)cc3)c2cc1C(=O)O [Compound 89, 7-Amino-4-[4-[[1-[(4-fluorophenyl)carbamoyl]cyclopropane-carbonyl]amino]phenoxy]quinoline-6-carboxylic Acid]
6 | 10 to 100 | 10 to 100 | 10 to 100 | O=C(Nc1ccc(F)cc1)C1(C(=O)Nc2ccc(Oc3ccnc4ccc(-c5ccn[nH]5)cc34)cc2)CC1 [Compound 204, 1-N′-(4-Fluorophenyl)-1-N-[4-[6-(1H-pyrazol-5-yl)quinolin-4-yl]oxyphenyl]cyclopropane-1,1-dicarboxamide]
7 | 100 to 300 | 100 to 300 | > 300 | CNC(=O)c1cc2c(Oc3ccc(NC(=O)C4(C(=O)Nc5ccc(F)cc5)CC4)cc3)ccnc2cc1N [Compound 88, 1-N-[4-[7-Amino-6-(methylcarbamoyl)quinolin-4-yl]oxyphenyl]-1-N′-(4-fluorophenyl)cyclopropane-1,1-dicarboxamide]
8 | 100 to 300 | 100 to 300 | > 300 | NC(=O)c1cc2c(Oc3ccc(NC(=O)C4(C(=O)Nc5ccc(F)cc5)CC4)cc3)ccnc2cc1N [Compound 87, 1-N-[4-(7-Amino-6-carbamoylquinolin-4-yl)oxyphenyl]-1-N′-(4-fluorophenyl)cyclopropane-1,1-dicarboxamide]
9 | 10 to 100 | 100 to 300 | 100 to 300 | CNC(=O)c1cc2c(Oc3ccc(NC(=O)C4(C(=O)Nc5c(C)cc(F)cc5C)CC4)cc3F)ccnc2cc1OC [Compound 267, 1-N′-(4-Fluoro-2,6-dimethylphenyl)-1-N-[3-fluoro-4-[7-methoxy-6-(methylcarbamoyl)quinolin-4-yl]oxyphenyl]cyclopropane-1,1-dicarboxamide]
10 | 100 to 300 | 10 to 100 | 100 to 300 | CNC(=O)Nc1ccc2c(Oc3ccc(NC(=O)C4(C(=O)Nc5ccc(F)cc5)CC4)cc3)ccnc2c1 [Compound 281, 1-N′-(4-Fluorophenyl)-1-N-[4-[7-(methylcarbamoylamino)quinolin-4-yl]oxyphenyl]cyclopropane-1,1-dicarboxamide]
11 | 10 to 100 | 10 to 100 | 10 to 100 | CNC(=O)c1cc2c(Oc3ccc(NC(=O)C4(C(=O)Nc5ccc(F)cc5)CC4)cc3)ccnc2cc1NC [Compound 83, 1-N′-(4-Fluorophenyl)-1-N-[4-[7-(methylamino)-6-(methylcarbamoyl)quinolin-4-yl]oxyphenyl]cyclopropane-1,1-dicarboxamide]
12 | 100 to 300 | 100 to 300 | 100 to 300 | CO/N=C(\C)c1cc2c(Oc3ccc(NC(=O)C4(C(=O)Nc5ccc(F)cc5)CC4)cc3)ccnc2cc1OC [Compound 35, 1-N′-(4-fluorophenyl)-1-N-[4-[7-methoxy-6-[(E)-N-methoxy-C-methylcarbonimidoyl]quinolin-4-yl]oxyphenyl]cyclopropane-1,1-dicarboxamide]
13 | 10 to 100 | 10 to 100 | 10 to 100 | COCCNc1cc2nccc(Oc3ccc(NC(=O)C4(C(=O)Nc5ccc(F)cc5)CC4)cc3)c2cc1C(N)=O [Compound 70, 1-N-[4-[6-Carbamoyl-7-(2-methoxyethylamino)quinolin-4-yl]oxyphenyl]-1-N′-(4-fluorophenyl)cyclopropane-1,1-dicarboxamide]
14 | ≤ 10 | 10 to 100 | ≤ 10 | COc1cc2nccc(Oc3ccc(NC(=O)C4(C(=O)Nc5ccc(F)cc5)CC4)cc3)c2cc1-c1cn(C)cn1 [Compound 177, 1-N′-(4-Fluorophenyl)-1-N-[4-[7-methoxy-6-(1-methylimidazol-4-yl)quinolin-4-yl]oxyphenyl]cyclopropane-1,1-dicarboxamide]
15 | > 300 | > 300 | > 300 | CNC(=O)c1cc2c(Oc3ccc(NC(=O)C4(C(=O)N(C)c5ccc(F)cc5)CC4)cc3)ccnc2cc1OC [Compound 263, 1-N′-(4-Fluorophenyl)-1-N-[4-[7-methoxy-6-(methylcarbamoyl)quinolin-4-yl]oxyphenyl]-1-N′-methylcyclopropane-1,1-dicarboxamide]
16 | 10 to 100 | 10 to 100 | 100 to 300 | O=C(NOCCO)c1ccc2c(Oc3ccc(NC(=O)C4(C(=O)Nc5ccc(F)cc5)CC4)cc3)ccnc2c1 [Compound 166, 1-N′-(4-Fluorophenyl)-1-N-[4-[7-(2-hydroxyethoxycarbamoyl)-quinolin-4-yl]oxyphenyl]cyclopropane-1,1-dicarboxamide]
17 | 10 to 100 | 10 to 100 | 10 to 100 | CNc1cc2nccc(Oc3ccc(NC(=O)C4(C(=O)Nc5ccc(F)cc5)CC4)cc3)c2cc1C(N)=O [Compound 82, 1-N-[4-[6-Carbamoyl-7-(methylamino)quinolin-4-yl]oxyphenyl]-1-N′-(4-fluorophenyl)cyclopropane-1,1-dicarboxamide]
